Experimental data: paper PMC3490914, “The Nonantibiotic Small Molecule Cyslabdan Enhances the Potency of β-Lactams against MRSA by Inhibiting Pentaglycine Interpeptide Bridge Synthesis” (PLoS ONE, 2012)

Assays:
[1] = target: T1, FemA (SAR1388) (Staphylococcus aureus, UniProt P0A0A5); experiment: pull-down of purified recombinant protein on biotinylcyslabdan-immobilized avidin beads, SDS-PAGE; also from MRSA lysate with LC-MS/MS; format: binding
T1 construct: recombinant, C-terminal hexahistidine tag
T1 sequence (P0A0A5 whole entry): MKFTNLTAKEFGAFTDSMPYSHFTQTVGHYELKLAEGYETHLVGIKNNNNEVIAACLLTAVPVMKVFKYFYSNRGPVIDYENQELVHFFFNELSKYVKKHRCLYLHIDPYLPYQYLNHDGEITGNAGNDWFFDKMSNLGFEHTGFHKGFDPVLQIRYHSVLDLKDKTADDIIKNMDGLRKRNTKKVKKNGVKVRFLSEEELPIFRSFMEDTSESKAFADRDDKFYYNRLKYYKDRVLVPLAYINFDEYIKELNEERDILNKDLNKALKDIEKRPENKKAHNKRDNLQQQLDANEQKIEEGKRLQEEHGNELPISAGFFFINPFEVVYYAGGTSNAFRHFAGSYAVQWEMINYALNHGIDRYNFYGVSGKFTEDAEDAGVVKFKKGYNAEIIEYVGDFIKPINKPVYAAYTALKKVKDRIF

[2] = target: T2, FemB (Staphylococcus aureus, UniProt Q2FYR1); experiment: pull-down of purified recombinant protein on biotinylcyslabdan-immobilized avidin beads, SDS-PAGE (some background binding to beads alone)
T2 construct: recombinant, C-terminal hexahistidine tag
T2 sequence (Q2FYR1 whole entry): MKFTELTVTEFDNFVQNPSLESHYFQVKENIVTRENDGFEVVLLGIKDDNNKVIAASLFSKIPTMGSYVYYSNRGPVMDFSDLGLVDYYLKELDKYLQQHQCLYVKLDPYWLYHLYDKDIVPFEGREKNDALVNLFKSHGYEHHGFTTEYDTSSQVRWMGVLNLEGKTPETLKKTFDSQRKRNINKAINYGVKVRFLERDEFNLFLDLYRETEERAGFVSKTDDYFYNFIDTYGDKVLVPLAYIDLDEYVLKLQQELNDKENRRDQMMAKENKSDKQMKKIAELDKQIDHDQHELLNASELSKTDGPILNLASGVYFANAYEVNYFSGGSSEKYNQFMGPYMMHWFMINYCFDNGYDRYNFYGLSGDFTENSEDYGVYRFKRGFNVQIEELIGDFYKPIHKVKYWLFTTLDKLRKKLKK

[3] = target: T1, FemA (SAR1388); experiment: in vitro glycyl transfer assay with purified FemA, monoglycyl lipid II and […]-glycine, TLC/phosphoimaging; supported by pull-down with biotinylcyslabdan; format: biochemical

SMILES | pull-down of purified recombinant protein on biotinylcyslabdan-immobilized avidi [1] | pull-down of purified recombinant protein on biotinylcyslabdan-immobilized avidi [2] | IC50 [3]
C=C/C(C)=C/CC1C2(C)CCCC(C)(C)C2CC(O)C1(O)CSC[C@H](NC(C)=O)C(=O)NCCOCCOCCNC(=O)CCCCC1SC[C@@H]2NC(=O)N[C@H]12 (stereo partly drawn) [biotinylcyslabdan] | Purified recombinant SAR1388 protein was then added to avidin beads onto which biotinylcyslabdan had been immobilized. | FemB was bound to only avidin beads, while the binding amount of FemB increased in the presence of biotinylcyslabdan | 
C=C/C(C)=C/C[C@@H]1[C@@]2(C)CCCC(C)(C)[C@@H]2C[C@H](O)[C@]1(O)CSC[C@H](NC(C)=O)C(=O)O [cyslabdan] |  |  | 530 µM
